1 compound from paper PMC5537305, “Photo-enhanced Aqueous Solubilization of an Azo-compound” (Scientific Reports, 2017) can be followed below.

Structures are written as SMILES. Converted amounts (≈) assume the structure as drawn. Read-outs that look alike come from different tables or passages of the source.

The nature of data set [1]: Photoinduced cis-trans isomerization of 3 in water containing 1% MeOH (HPLC peak areas). Format: physicochemical. The protocol:
To confirm the potential usefulness of this strategy for improving aqueous solubility, we focused on kinase inhibitor 3 [31] (Fig. S2) as representative of pharmaceutical compounds, because the 518 human protein kinases include important drug targets, and the molecular structures of many kinase inhibitors tend to be rather similar. […]
Table S2. Photoinduced isomerization of 3
Light Time (min) cis ratio (%) trans ratio (%)
Compound 3 (10 µM) in a mixture of water and MeOH (1%) was successively exposed to white light and to a 365 nm mercury lamp (0.5 mW/cm2). The cis-trans ratio was calculated from the peak areas in HPLC. […]
Physicochemical properties
The UV-visible absorption spectra of the cis and trans isomers were determined on a UV-visible spectrometer (Shimano, UV-2400PC). Sample solutions in quartz cells were irradiated with a 365 nm mercury lamp (4 W, UVP compact UV lamp, 0.5 mW/cm2), LED UV light (3.3 W, CCS HLV-24UV365-4WNRBTNJ, 344 mW/cm2), or white LED light (5 W, Nikki Trading Corp., NLSS05BM, 68 and 54 mW/cm2 at 450 and 540 nm, respectively) for the indicated times at room temperature. […]

The nature of data set [2]: Aqueous dissolution in the dark of UV-irradiated crystals of 3. Format: physicochemical. The following applies: for cis ratio contained in the solution, on average: dissolved in the dark; for cis ratio / solubility at 1 h: 37 °C, 1 h; for solubility at 1 h: phosphate buffer, thermodynamic from solid, read-out: Aqueous solubilized 3. The text has this: At the photostationary state under UV irradiation, the equilibria shown in Fig. 3a should be in balance. Here, we are interested in the transient process, i.e., how cis-3 in solution increases when UV irradiation is started. There are two possible routes for generating cis-3 in solution from trans-3 in the solid state: route (i) and (ii). Route (i) is clearly possible, because the process trans solution → cis solution is easily driven by UV irradiation (Fig. S3a). The remaining question is whether cis isomerization of solid 3 is induced under UV irradiation, that is, whether route (ii) also operates. To answer this question, we investigated the aqueous dissolution in the dark of UV-irradiated crystals of 3. The UV-irradiated crystals were clearly more soluble than the unirradiated crystals (Fig. 3b and Table S7). In addition, the cis ratio of UV-irradiated crystals contained in the solution was higher than that of unirradiated crystals (14% vs 4% on average, Table S7). […] Therefore, we conclude that routes (i) and (ii) both operate upon UV irradiation.
Figure 3 (a) Possible equilibria and routes for generating cis-3 in solution. (b) Kinetics of aqueous dissolution of UV-irradiated crystals of 3, measured in the dark. Crystals of 3 were irradiated with 365 nm LED light (344 mW/cm^2) at 37 °C for 3 h. The UV-irradiated crystals and unirradiated crystals were each shaken with phosphate buffer in the dark at 37 °C for 1 h. Data are the mean ± SD of three individual experiments. The asterisk indicates a significant difference (*p < 0.05) from the unirradiated crystals according to the unpaired, two-sided Student’s t-test. […]
Table S7. Aqueous dissolution of UV-irradiated crystals of 3 measured in the dark, and the cis ratio contained […]
Unirradiated crystals UV-irradiated crystals entry Aqueous solubilized 3 cis ratio (%) Aqueous solubilized 3 cis ratio (%) […]
Crystals of 3 were irradiated with 365 nm LED light (344 mW/cm2) at 37 °C for 3 h. It should be noted that […]
The UV-irradiated crystals and unirradiated crystals were each shaken in phosphate buffer in the dark at 37 °C for 1 h.

[3] abbreviates: 10 µM in water/MeOH (1%), step 1: visible (white light) 10 min.
The mark [4] stands for this setting: step 2: UV 365 nm mercury lamp 0.5 mW/cm2, 10 min.
Setting [5] is: step 4: UV 10 min (second UV exposure).

Take `CC(C)n1nc(/N=N/c2ccccc2)c2c(N)ncnc21` [Compound 3]: the cis ratio was found to be 20.3% in data set [1] (setting [3]); 84.8% in data set [1] (setting [4]); 18.3% in data set [1] (step 3: visible 12 min); 86.9% in data set [1] (setting [5]); 19.4% in data set [1] (step 5: visible 20 min); 21% in data set [2] (UV-irradiated crystals, entry 1, dark). The cis ratio is 14% in data set [2] (UV-irradiated crystals, entry 2, dark); 7% in data set [2] (UV-irradiated crystals, entry 3, dark); 5% in data set [2] (Unirradiated crystals, entry 1, dark); 3% in data set [2] (Unirradiated crystals, entry 2, dark); 4% in data set [2] (Unirradiated crystals, entry 3, dark). For the same compound, the trans ratio in data set [1] (setting [3]) turned out to be 79.7%; in data set [1] (setting [4]), 15.2%; in data set [1] (step 3: visible 12 min), 81.7%; in data set [1] (setting [5]), 13.1%; in data set [1] (step 5: visible 20 min), 80.6%. Moreover, the “cis ratio contained in the solution, on average” value in data set [2] (UV-irradiated crystals) was 14%; in data set [2] (unirradiated crystals), 4%. In addition, the solubility at 1 h in data set [2] (aqueous buffer, Unirradiated crystals, entry 2, dark) amounted to 2.6 µg/mL (≈ 9.24 µM); in data set [2] (pH 7.4, aqueous buffer, UV-irradiated crystals (365 nm LED 344 mW/cm2, 37 °C, 3 h), entry 1, dark), 3.7 µg/mL (≈ 13.2 µM); in data set [2] (pH 7.4, aqueous buffer, UV-irradiated crystals, entry 2, dark) it was 3.4 µg/mL (≈ 12.1 µM); in data set [2] (pH 7.4, aqueous buffer, UV-irradiated crystals, entry 3, dark), 3.2 µg/mL (≈ 11.4 µM); in data set [2] (pH 7.4, aqueous buffer, Unirradiated crystals, entry 1, phosphate buffer, dark), 2.8 µg/mL (≈ 9.95 µM); in data set [2] (pH 7.4, aqueous buffer, Unirradiated crystals, entry 3, dark) it was 3 µg/mL (≈ 10.7 µM).
